Earlier results in patent publication US7041851B2, “Fluorinated phenyl thiophenyl derivatives and their use for imaging serotonin transporters” (The Trustees of the University of Pennsylvania, priority 2002, dated 2006).

Target: T1, SERT (Rattus norvegicus, UniProt P31652)
T1 construct: from tissue; host or cells: rat brain in vivo (hypothalamus, striatum, hippocampus, cerebellum)
Settings: cited from earlier work

T1 sequence (P31652 whole entry): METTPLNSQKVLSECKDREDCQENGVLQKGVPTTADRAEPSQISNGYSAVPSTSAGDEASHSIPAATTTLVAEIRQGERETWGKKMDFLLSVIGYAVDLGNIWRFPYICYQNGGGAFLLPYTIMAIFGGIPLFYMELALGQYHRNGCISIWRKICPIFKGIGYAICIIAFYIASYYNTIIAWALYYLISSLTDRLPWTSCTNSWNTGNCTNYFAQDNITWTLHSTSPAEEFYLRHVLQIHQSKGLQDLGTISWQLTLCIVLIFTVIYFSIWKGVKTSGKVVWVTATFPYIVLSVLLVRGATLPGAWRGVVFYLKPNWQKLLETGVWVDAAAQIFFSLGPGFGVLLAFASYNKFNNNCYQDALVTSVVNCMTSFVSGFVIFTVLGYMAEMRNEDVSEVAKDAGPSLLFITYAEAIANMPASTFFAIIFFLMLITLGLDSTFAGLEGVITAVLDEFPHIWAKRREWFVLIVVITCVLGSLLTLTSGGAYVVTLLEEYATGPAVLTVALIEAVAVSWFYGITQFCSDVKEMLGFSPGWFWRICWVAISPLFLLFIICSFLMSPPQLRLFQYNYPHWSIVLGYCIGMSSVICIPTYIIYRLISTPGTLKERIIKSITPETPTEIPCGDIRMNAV

Structure (SMILES)	Brain uptake and specific binding (rats, 11C-labelled, Huang et al., 2001b)	Time of peak uptake (comparison with [18F]ACF, hypothalamus region)
CN([11CH3])Cc1ccccc1Sc1ccc(CF)cc1N [AFM]	excellent brain uptake and a high degree of specific binding	–
CN(C)Cc1ccccc1Sc1ccc([125I])cc1N [[^125I]ADAM]	–	4 h
